Laboratory results as given in patent US20170128435A1, “TREATMENT OF MULTIPLE SCLEROSIS WITH LAQUINIMOD” (Teva Pharmaceutical Industries, Ltd., priority 2009, published 2017).
Where two headings read alike, the source gives them in different places.

Legend:
[1] = (Polman, 2005; Sandberg-Wollheim, 2005); cited from earlier work
[2] = system: subjects with relapsing remitting multiple sclerosis (RRMS); test: Phase III clinical trial ALLEGRO: daily oral laquinimod 0.6 mg vs placebo; format: in vivo, human; conditions: daily oral 0.6 mg, RRMS patients
Method: A multinational, multicenter (approximately 175 centers), randomized, double-blinded, parallel-group, placebo-controlled clinical trial (“ALLEGRO”) is conducted to evaluate the safety, tolerability and efficacy of daily oral administration of laquinimod 0.6 mg in subjects with relapsing remitting multiple sclerosis (RRMS). A multinational, multicenter, randomized, double-blind, parallel-group, placebo-controlled study, to evaluate the safety, tolerability and efficacy of daily oral administration of laquinimod 0.6 mg in subjects with relapsing remitting multiple sclerosis (RRMS). Double blind treatment phase: 24 months of once-daily oral administration of daily dose of 0.6 mg laquinimod or matching placebo Eligible subjects are equally randomized into one of the following treatment arms: • 1. Laquinimod capsules 0.6 mg. The 0.6 mg laquinimod is administered as laquinimod capsules which contains 0.6 mg of Laquinimod Acid per capsule with meglumine. • 2. Matching placebo capsules. Subjects are evaluated at study sites for 12 scheduled visits of the double blind phase at months: −1 (screening), 0 (baseline), 1, 2, 3, 6, 9, 12, 15, 18, 21 and 24 (termination/early discontinuation). In case of the 6 months extended study, subjects are evaluated at study sites at months 27 and 30 (termination/early discontinuation of extended study), in this case month 24 is a regular scheduled visit. The following assessments are performed at specified time points: • 1. Vital signs are measured at each study visit. • 2. A physical examination is performed at months −1 (screening), 0 (baseline) 1, 3, 6, 12, 18 and 24 (termination/early discontinuation core study). In case of the 6 months extended study, additional examination is performed at month 30 (termination/early discontinuation of extended study). • 3. The following safety clinical laboratory tests are performed: • a. Complete blood count (CBC) with differential—at all scheduled visits. A reticulocyte count is added to the CBC at months 0 (baseline) and 24/30 (termination/early discontinuation). • b. Serum chemistry (including electrolytes, liver enzymes, direct and total bilirubin and pancreatic amylase and CPK), and urinalysis—at all scheduled visits. • c. A rapid urine β-hCG test is performed in women of child-bearing potential at baseline (month 0) and at each scheduled study visit thereafter (at site). • d. β-hCG in women of child-bearing potential is performed at all scheduled visits. • e. Starting after visit Month 3 a rapid urine β-hCG test is performed in women of child-bearing potential every 28 (±2) days. The subject is contacted by telephone within 72 hours after the test is scheduled to be performed and asked specific questions regarding the test. In case of suspected pregnancy (positive urine β-hCG test result), the caller makes sure that the study drug has been discontinued and the subject is instructed to arrive at the site as soon as possible with all study drugs. • 4. Markers of inflammation (serum conventional C-reactive protein and fibrinogen)—at screening, baseline and all scheduled visits thereafter. • 5. During the first 3 months periodical phone calls are placed by the site personnel every two weeks. […] ECG is performed at months −1 (screening; additional recording, up to 30 minutes apart is performed if QTc is […] 450 msec), (baseline; three recordings, 15 minutes apart), 1, 2, 3, 6, 12, 18 and 24 (termination/early discontinuation). In case of the 6 months extended study, ECG is performed at month 30 (termination/early discontinuation of the extended study). • 7. Chest X-ray is performed at months −1 (screening), (if not performed within 7 months prior to the screening visit). • 8. Adverse Events (AEs) are monitored throughout the study. • 9. Concomitant medications are monitored throughout the study. • 10. […]

[3] = system: subjects with Relapsing-Remitting Multiple Sclerosis (RRMS); test: Phase III clinical trial BRAVO: laquinimod over placebo, with Interferon β-1a (Avonex®) reference arm; format: in vivo, human; conditions: daily oral 0.6 mg, RRMS patients
Method: A multinational, multicenter, randomized, parallel-group, clinical trial is performed in subjects with RRMS (“BRAVO”). BRAVO is conducted to assess the efficacy, safety and tolerability of laquinimod over placebo in a double-blinded design and of a reference arm of Interferon β-1a (Avonex®) in a rater-blinded design. A multinational, Multicenter, Randomized, Parallel-Group study performed in subjects with Relapsing-Remitting Multiple Sclerosis (RRMS) to assess the efficacy, safety and tolerability of laquinimod over placebo in a double-blind design and of a reference arm of Interferon β-1a (Avonex®)in a rater-blinded design. Treatment phase: 24 months of once-daily oral administration of laquinimod 0.6 mg, matching oral placebo or once-weekly intramuscular administration of Interferon β-1a (Avonex®) 30 mcg. Eligible subjects are randomized in a 1:1:1 ratio (oral laquinimod: oral placebo: Avonex®) and assigned to one of the following three treatment arms: • 1. Laquinimod 0.6 mg per os once daily (400 subjects). The 0.6 mg laquinimod is administered as laquinimod capsules which contains 0.6 mg of Laquinimod Acid per capsule with meglumine. • 2. Matching placebo (for laquinimod) per os once daily (400 subjects). • 3. Interferon β-1a (Avonex®) 30 mcg intramuscular injection once weekly (400 subjects). Subjects on oral treatment are managed in a double-blind manner. Subjects assigned to injectable treatment with Avonex® and their Treating Neurologist/Physician are unblinded to the treatment assignment, but assessed neurologically by an Examining Neurologist/Physician in a blinded manner (potential IM injection sites are covered). During the study, the following assessments are performed (regardless of the treatment assignment) at the specified time points: • 1. Vital signs are measured at each study visit. • 2. A physical examination is performed at months −1 (screening), 0 (baseline) 1, 3, 6, 12, 18 and 24 (termination/early discontinuation). • 3. The following safety clinical laboratory tests are performed: • a. Complete blood count (CBC) with differential—at all scheduled visits. A reticulocyte count is added to the CBC at months 0 (baseline) and 24 (termination/early discontinuation) as well as in occasions of significant decrease in hemoglobin. • b. Serum chemistry (including electrolytes, liver enzymes, direct and total bilirubin, CPK and pancreatic amylase), and urinalysis—at all scheduled visits. • c. Serum TSH, T3 and Free T4 are measured at months 0 (baseline), 6, 12, 18 and 24 (termination/early discontinuation). • d. […] Markers of inflammation (serum conventional C-reactive protein and fibrinogen) are measured at all scheduled visits. • 5. […]

relapsing MS = conditions: cited from earlier work
[4] = system: Relapsing-Remitting Multiple Sclerosis; conditions: 0.3 mg/day oral dose (Comi, 2007); cited from earlier work

| SMILES | oral bioavailability [1] | MRI-monitored disease activity: cumulative number of enhancing lesions on T1-weighted images [2] | MRI-monitored disease activity: cumulative number of new T2 lesions [2] | MRI-monitored disease activity: cumulative number of new hypointense lesions on T1-scans [2] | accumulation of physical disability, as measured by the time to confirmed progression of EDSS [2] | relapse rate ([2]; double blind study period) | number of confirmed relapses during the double blind study period ([2]; vs placebo) | accumulation of physical disability, as measured by the MSFC score at the end of the treatment period [3] | accumulation of physical disability, as measured by time to confirmed progression of EDSS [3] | brain atrophy, as measured by percent brain volume change from baseline to the end of the treatment period [3] | number of confirmed relapses (directly related to the relapse rate) ([3]; treatment period) | development of active MRI lesions (relapsing MS; 0.3 mg/day oral dose, relapsing MS (RRMS and SPMS) (Polman, 2005)) | development of active MRI lesions (relapsing MS; relapsing MS, dose not stated (Polman, 2005)) | MRI and clinical effect as compared to placebo [4] |
| --- | --- | --- | --- | --- | --- | --- | --- | --- | --- | --- | --- | --- | --- | --- |
| CCN(C(=O)c1c(O)c2c(Cl)cccc2n(C)c1=O)c1ccccc1 [Laquinimod sodium] | high |  |  |  |  |  |  |  |  |  |  |  |  |  |
| CCN(C(=O)c1c(O)c2c(Cl)cccc2n(C)c1=O)c1ccccc1 [laquinimod] |  | reduces | reduces | reduces | reduces | reduces | reduces | reduces | reduces | reduces | reduces | reduce | reduce | neither MRI nor clinical effect |
